Publication PMC2673918 (Journal of natural products, 2009)

How the values were obtained:
trypsin = trypsin inhibition; format: biochemical; details: at concentrations up to 100 µg/mL
chymotrypsin = chymotrypsin inhibition; format: biochemical; details: at concentrations up to 100 µg/mL

Substance	trypsin inhibition (qualitative) (trypsin)	chymotrypsin inhibition (qualitative) (chymotrypsin)
Anabaenopeptin 908 [Compound 3]	did not observe trypsin/chymotrypsin inhibition	did not observe trypsin/chymotrypsin inhibition
Anabaenopeptin 915 [Compound 4]	did not observe trypsin/chymotrypsin inhibition	did not observe trypsin/chymotrypsin inhibition
